# Several values for one entry are separate records, joined by “and”; a condition that tells them apart may be missing. Equal entries are not always repeated. Ends that are not written are not given here.
# How the values were obtained:
# [1] = tested on: amphotropic murine leukemia virus; assay: AMLV pseudotyped virus entry counter-screen, same infection protocol; format: cell-based; conditions: for AMLVpp % inh: peptide library screen, cell entry inhibition vs uninhibited control; for luciferase units, AMLV entry: duplicates
# Procedure: Infection of hepatoma cell lines with HCV pseudotype particles and screen for inhibitory peptides. The hepatoma cells, Huh7, was seeded at 8000 cells in 90 ul medium in 96-well plate. In the case of the inhibitor screen, the inhibitor was incubated with cells for one hour at 37° C. and then 50 ul viral supernatant was added to the cells 24 hours after seeding. The viral stock was pre-tittered and diluted to yield approximately 10,000 to 20,000 RLU. The cells were incubated at 37° C. with 5% CO2 for additional 72 hours and were harvested for luciferase assay. Peptide stocks were prepared in 100% DMSO at 10 mg/ml and were first screened at 100 ug/ml and then a dose responsive curve was generated with 10 points 3-fold titration starting from 100 ug/ml.
# The specificity of the peptides were counter-screened with AMLV and HIV pseudotyped viruses using the same infection protocol.
# HCV pseudoparticles = assay: HCV pseudoparticle (HCVpp) entry assay in Huh7 hepatoma cells, luciferase readout; format: cell-based, hepatitis C virus; conditions: for HCVpp % inh: peptide library screen, first screened at 100 ug/ml, cell entry inhibition vs uninhibited control; for luciferase units, HCV entry / viral entry as a percentage of the uninhibited control: duplicates; for viral entry as a percentage of the uninhibited control: HCV entry
# Outline: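 Huh7 cells were pre-treated with peptide for 1 h at 37 °C before exposure to HCV E1/E2-pseudotyped HIV luciferase particles made in 293T cells, followed by 72 h culture and luciferase readout. Peptides were tested at 10 points, 3-fold, from 100 ug/ml; particles lacking envelope served as non-specific entry control.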
substance,measurement,setting,value
F-L-A-A-L-F-Y-V-H-K-F-N-S-S-G-C [SEQ ID NO: 38],AMLVpp % inh,[1],−44%
same,HCVpp % inh,HCV pseudoparticles,23%
K-T-L-T-C-P-T-D-C-F-R-K-H-P-E-A [SEQ ID NO: 58],AMLVpp % inh,[1],13%
same,HCVpp % inh,HCV pseudoparticles,50%
W-F-G-C-T-W-M-N-S-T-G-F-T-K-T-C (WFGCTWMNSTGFTKTC; HCV peptide) [SEQ ID NO: 54],AMLVpp % inh,[1],−15%
same,HCVpp % inh,HCV pseudoparticles,39%
C-W-H-Y-A-P-R-P-C-G-I-V-P-A-A-Q [SEQ ID NO: 45],AMLVpp % inh,[1],−8%
same,HCVpp % inh,HCV pseudoparticles,63%
V-C-A-C-L-W-M-M-L-L-I-A-Q-A-E-A [SEQ ID NO: 80],AMLVpp % inh,[1],7%
same,HCVpp % inh,HCV pseudoparticles,16%
T-N-G-S-W-H-I-N-R-T-A-L-N-C-N-D (TNGSWHINRTALNCND; HCV peptide) [SEQ ID NO: 35],AMLVpp % inh,[1],30%
same,HCVpp % inh,HCV pseudoparticles,29%
R-F-G-V-P-T-Y-S-W-G-E-N-E-T-D-V [SEQ ID NO: 50],AMLVpp % inh,[1],33%
same,HCVpp % inh,HCV pseudoparticles,34%
M-A-W-D-M-M-M-N-W-S-P-T-A-A-L-V (MAWDMMMNWSPTAALV; not fully specified (C-terminus); printed as M-A-W-D-M-M-M-N-W-S-P-T-A-A-L-V) [SEQ ID NO: 21],AMLVpp % inh,[1],3%
same,HCVpp % inh,HCV pseudoparticles,32%
A-I-K-W-E-Y-V-L-L-L-F-L-L [SEQ ID NO: 81],"luciferase units, AMLV entry",[1]; 0.01371742 uM of peptide (three lines),46029 luciferase units and 39655 luciferase units and 41740 luciferase units and 42548 luciferase units and 45150 luciferase units and 45203 luciferase units
same,"luciferase units, AMLV entry",[1]; 0.04115226 uM of peptide,40104 luciferase units and 51496 luciferase units
same,"luciferase units, AMLV entry",[1]; 0.1234568 uM of peptide,51789 luciferase units and 49401 luciferase units
same,"luciferase units, AMLV entry",[1]; 0.3703704 uM of peptide,48861 luciferase units and 55221 luciferase units
same,"luciferase units, AMLV entry",[1]; 1.111111 uM of peptide,54439 luciferase units and 53032 luciferase units
same,"luciferase units, AMLV entry",[1]; 3.333333 uM of peptide,62658 luciferase units and 51388 luciferase units
same,"luciferase units, AMLV entry",[1]; 30 uM of peptide,86600 luciferase units and 64937 luciferase units
same,"% control (HCVpp entry), glycine scanning","HCV pseudoparticles; 0.00003 uM of peptide, two values per peptide and row",86 % control and 77 % control and 104 % control and 134 % control
same,"% control (HCVpp entry), glycine scanning","HCV pseudoparticles; 0.0001 uM of peptide, two values per peptide",103 % control and 79 % control
same,"% control (HCVpp entry), glycine scanning","HCV pseudoparticles; 0.0003 uM of peptide, two values per peptide",90 % control and 105 % control
same,"% control (HCVpp entry), glycine scanning","HCV pseudoparticles; 0.001 uM of peptide, two values per peptide",94 % control and 114 % control
same,"% control (HCVpp entry), glycine scanning","HCV pseudoparticles; 0.003 uM of peptide, two values per peptide",82 % control and 66 % control
same,"% control (HCVpp entry), glycine scanning","HCV pseudoparticles; 0.01 uM of peptide, two values per peptide",70 % control and 71 % control
same,"% control (HCVpp entry), glycine scanning","HCV pseudoparticles; 0.03 uM of peptide, two values per peptide",51 % control and 38 % control
same,"luciferase units, HCV entry",HCV pseudoparticles; 0.04115226 uM of peptide,3138 luciferase units and 5487 luciferase units
same,"luciferase units, HCV entry",HCV pseudoparticles; 0.1234568 uM of peptide,1665 luciferase units and 1759 luciferase units
same,"% control (HCVpp entry), glycine scanning","HCV pseudoparticles; 0.3 uM of peptide, two values per peptide",39 % control and 31 % control
same,"luciferase units, HCV entry",HCV pseudoparticles; 0.3703704 uM of peptide,2133 luciferase units and 2617 luciferase units
same,"luciferase units, HCV entry",HCV pseudoparticles; 1.111111 uM of peptide,2065 luciferase units and 2449 luciferase units
same,"luciferase units, HCV entry",HCV pseudoparticles; 10 uM of peptide,2584 luciferase units and 3853 luciferase units
same,"% control (HCVpp entry), glycine scanning","HCV pseudoparticles; 10 uM of peptide, two values per peptide",22 % control and 34 % control
same,"luciferase units, HCV entry",HCV pseudoparticles; 30 uM of peptide,990 luciferase units and 667 luciferase units
same,"% control (HCVpp entry), glycine scanning","HCV pseudoparticles; 30 uM of peptide, two values per peptide",30 % control and 26 % control
same,viral entry as a percentage of the uninhibited control,"HCV pseudoparticles; 0.1 nM of peptide (three lines), 0.0001 µM",79% and 103% and 77% and 86% and 134% and 104%
same,viral entry as a percentage of the uninhibited control,"HCV pseudoparticles; 0.3 nM of peptide, 0.0003 µM",105% and 90%
same,viral entry as a percentage of the uninhibited control,"HCV pseudoparticles; 1 nM of peptide, 0.001 µM",114% and 94%
same,viral entry as a percentage of the uninhibited control,"HCV pseudoparticles; 3 nM of peptide, 0.003 µM",66% and 82%
same,viral entry as a percentage of the uninhibited control,"HCV pseudoparticles; 10 nM of peptide, 0.01 µM",71% and 70%
same,viral entry as a percentage of the uninhibited control,"HCV pseudoparticles; 30 nM of peptide, 0.03 µM",38% and 51%
same,viral entry as a percentage of the uninhibited control,"HCV pseudoparticles; 300 nM of peptide, 0.3 µM",31% and 39%
same,viral entry as a percentage of the uninhibited control,"HCV pseudoparticles; 10000 nM of peptide, 10 µM",34% and 22%
same,viral entry as a percentage of the uninhibited control,"HCV pseudoparticles; 30000 nM of peptide, 30 µM",26% and 30%
same,% of control at ~30 uM,HCV pseudoparticles; percentage of hepatitis C virus cellular entry at 30 μM peptide vs uninhibited control,17%
D-C-F-R-K-H-P-E-A-T-Y-T-K-C-G-S [SEQ ID NO: 59],AMLVpp % inh,[1],−14%
same,HCVpp % inh,HCV pseudoparticles,26%
A-L-T-P-T-L-A-A-R-N-A-S-V-P-T-T [SEQ ID NO: 10],AMLVpp % inh,[1],1%
same,HCVpp % inh,HCV pseudoparticles,53%
V-V-D-V-Q-Y-L-Y-G-I-G-S-A-V-V-S [SEQ ID NO: 75],AMLVpp % inh,[1],44%
same,HCVpp % inh,HCV pseudoparticles,39%
I-F-K-V-R-M-Y-V-G-G-V-E-H-R-L-E (IFKVRMYVGGVEHRLE; HCV peptide) [SEQ ID NO: 65],AMLVpp % inh,[1],−62%
same,HCVpp % inh,HCV pseudoparticles,19%
S-V-F-L-V-A-Q-L-F-T-F-S-P-R-R-H [SEQ ID NO: 16],AMLVpp % inh,[1],−148%
same,HCVpp % inh,HCV pseudoparticles,3%
Q-K-I-Q-L-V-N-T-N-G-S-W-H-I-N-R (QKIQLVNTNGSWHINR; HCV peptide) [SEQ ID NO: 34],AMLVpp % inh,[1],13%
same,HCVpp % inh,HCV pseudoparticles,6%
Y-G-I-G-S-A-V-V-S-F-A-I-K-W-E-Y [SEQ ID NO: 76],AMLVpp % inh,[1],24%
same,HCVpp % inh,HCV pseudoparticles,7%
L-E-A-A-C-N-W-T-R-G-E-R-C-N-L-E [SEQ ID NO: 67],AMLVpp % inh,[1],37%
same,HCVpp % inh,HCV pseudoparticles,26%
G-H-V-T-G-H-R-M-A-W-D-M-M-M-N-W [SEQ ID NO: 20],AMLVpp % inh,[1],6%
same,HCVpp % inh,HCV pseudoparticles,43%

# From patent US20100119483A1, “PEPTIDE VIRAL ENTRY INHIBITORS” (Schering Corporation, priority 2004, published 2010)
